# Entries after “also recorded” stand apart in the source; their conditions may differ.
# System: NCI-60 cell lines
# Assay type: cell-based, human
Substance,Cell Line (NCI-60 cell line the peptide and its motif are associated with),Cell Line with which the peptide (and its tripeptide motif) is associated,Cell Line the peptide is associated with (peptide recovered from phage library selection on this NCI-60 cell line),Cell Line (NCI-60 cell line the peptide is associated with)
RTWGGRM,M14 Melanoma,–,–,–
NAASLPS,–,SR Leukemia,–,–
LFGSSVS,–,–,SN12C Renal,–
RASFRAG,–,SR Leukemia,–,–
GGVSRMR,–,–,CAIK-1 Renal,–
THVGGVR,OVCAR-8 Ovarian,–,–,–
GASLTGD,–,H460-Lung,–,–
GEGSGSA,–,–,MDA-MB-435-Breast,–
LRSWLLF,–,–,–,HT-29 Colon
LVGRGVR,–,–,–,SF-268 CNS
SVHLVSG,–,–,HS 578 T Breast,–
TRLGGLT,–,–,–,SF-295 CNS
LSKGGSE,–,–,T-47D Breast,–
WGVAGLG,–,–,–,HT-29 Colon
SGAGSVS,OVCAR-5 Ovarian,–,–,–
AAVTVVR,–,–,–,KM-12C Colon
GAGVEYF,–,–,RXF393 Renal,–
LGLVHWV,–,–,MDA-MB-231 Breast,–
FQRSGRL,SK-MEL-28 Melanoma,–,–,–
ATGSGSV,PC3 Prostate,–,–,–
VHRVSGG,–,RPMI-8226-Leukemia,–,–
PRGMARG,–,–,BT-549 Breast,–

Substance,Cell Line (NCI-60 cell line the peptide and its motif are associated with),Cell Line with which the peptide (and its tripeptide motif) is associated,Cell Line the peptide is associated with (peptide recovered from phage library selection on this NCI-60 cell line),Cell Line (NCI-60 cell line the peptide is associated with)
SGPGRLP,M14 Melanoma,–,–,–
DWVCRAS,–,–,–,HT-29 Colon
RIDAGGG,–,–,–,SW620-Colon
EFTRRAS,–,A549-Lung,–,–
QLVSGSL,–,–,–,HCT-116 Colon
SWAGVRF,OVCAR-5 Ovarian,–,–,–
FGSSNRS,–,–,–,SF-268 CNS
GGMNGRL,–,–,–,HT-29 Colon
GSSGLLA,–,–,NCI/ADR-RES Breast,–
AGLSGSQ,–,RPMI-8226-Leukemia,–,–
GRLWWHT,–,Hop-92-Lung,–,–
FHFGGSG,OVCAR-5 Ovarian,–,–,–
SGWFAGS,SK-OV-3-3 Ovarian,–,–,–
PVHSAGG,–,H460-Lung,–,–
RLGSSGL,–,–,RXF393 Renal,–
AEGGSGH,–,A549-Lung,–,–
GVLTIGA,–,–,BT-549 Breast,–
GGRLRAV,–,–,–,SNB-19 CNS; also recorded: SF-539 CNS
AGGSLGS,–,H23-Lung,–,–
GGAGRGA,OVCAR-4 Ovarian,–,–,–
HAWDRGV,–,–,MDA-MB-231 Breast,–
SGGLVLT,–,Hop-92-Lung,–,–

Substance,Cell Line (NCI-60 cell line the peptide and its motif are associated with),Cell Line with which the peptide (and its tripeptide motif) is associated,Cell Line the peptide is associated with (peptide recovered from phage library selection on this NCI-60 cell line),Cell Line (NCI-60 cell line the peptide is associated with)
TAAAVLL,OVCAR-5 Ovarian,–,–,–
RLSSAPS,M14 Melanoma,–,–,–
AVGRGSG,–,Hop-92-Lung,–,–
LSTPGRV,–,–,UO31 Renal,–
GLVSVEA,–,A549-Lung,–,–
PRLSWVL,–,–,–,HT-29 Colon
AVLVAGG,–,CCRF-CEM Leukemia,–,–
VMGGPSL,–,Hop-62-Lung,–,–
GGRSWVN,–,RPMI-8226-Leukemia,–,–
DHVSGSV,–,–,CAIK-1 Renal,–
VNLGGSW,–,H322-Lung,–,–
SLVSPRT,OVCAR-5 Ovarian,–,–,–
YRGSSGK,–,RPMI-8226-Leukemia,–,–
VTGGRVD,–,A549-Lung,–,–
HTRAVSE,OVCAR-8 Ovarian,–,–,–
AGGFGVL,IGROV1 Ovarian,–,–,–
DRASSWA,A498 Renal,–,–,–
RSSIAPS,–,Molt-4-Leukemia,–,–
GRLMPGG,–,–,ACHN Renal,–
YAGSGQL,OVCAR-8 Ovarian,–,–,–
GGSVRHV,–,RPMI-8226-Leukemia,–,–
GSWARGY,–,–,–,HCT-15 Colon

Substance,Cell Line (NCI-60 cell line the peptide and its motif are associated with),Cell Line with which the peptide (and its tripeptide motif) is associated,Cell Line the peptide is associated with (peptide recovered from phage library selection on this NCI-60 cell line),Cell Line (NCI-60 cell line the peptide is associated with)
RHGPGVL,OVCAR-3 Ovarian,–,–,–
HSRAVAP,–,SR Leukemia,–,–
VGAGRFT,–,–,MDA-MB-231 Breast,–
REEFAGR,–,SR Leukemia,–,–
TGGSLLG,IGROV1 Ovarian,–,–,–
PGLGYAL,–,–,T-47D Breast,–
LAGLVSG,–,–,–,HT-29 Colon
DLLRYLA,–,H322-Lung,–,–
DGPSCVI,UACC62 Melanoma,–,–,–
ISGVSDD,–,–,BT-549 Breast,–
TDLAGLH,–,RPMI-8226-Leukemia,–,–
FLRSLSL,SK-MEL-5 Melanoma,–,–,–
RDLGGRW,–,–,MCF-7 Breast,–
IGWGVLG,–,–,BT-549 Breast,–
PWYDGSV,OVCAR-3 Ovarian,–,–,–
TAGRLEV,–,–,RXF393 Renal,–
VRRSSKF,–,–,BT-549 Breast,–
DGGGRVG,–,–,CAIK-1 Renal,–
LGLVSTT,–,–,–,HT-29 Colon
KGSVLML,–,–,NCI/ADR-RES Breast,–
HTYGVRF,–,–,TK-10 Renal,–
GFYWLRS,–,Molt-4-Leukemia,–,–

Substance,Cell Line (NCI-60 cell line the peptide and its motif are associated with),Cell Line with which the peptide (and its tripeptide motif) is associated,Cell Line the peptide is associated with (peptide recovered from phage library selection on this NCI-60 cell line),Cell Line (NCI-60 cell line the peptide is associated with)
YGLRSLV,–,–,BT-549 Breast,–
WLDASLM,–,SR Leukemia,–,–
VIGSRLS,–,EKVX-Lung,–,–
LVGRVKL,–,–,–,HT-29 Colon
GSSVSLG,–,–,BT-549 Breast,–
FGLGSSR,–,Hop-62-Lung,–,–
WISAVSK,SK-OV-3-3 Ovarian,–,–,–
NEFLGRL,–,–,–,HCT-116 Colon
RGLQGGR,SK-MEL-2 Melanoma,–,–,–
GLVSSLP,–,–,–,HCT-15 Colon
RQLVSPA,–,–,–,HT-29 Colon
MGMSGPS,–,CCRF-CEM Leukemia,–,–
SLGLRNQ,–,CCRF-CEM Leukemia,–,–
GVLSDRS,SK-MEL-2 Melanoma,–,–,–
LRSRLGF,–,SR Leukemia,–,–
SRLSYRS,–,A549-Lung,–,–
RHGVRSK,–,–,–,SF-295 CNS
RKEALRV,–,–,CAIK-1 Renal,–
CGAVAEW,PC3 Prostate,–,–,–
VGLGNSA,SK-MEL-2 Melanoma,–,–,–
ADFFGLV,–,RPMI-8226-Leukemia,–,–
GAVRSVM,–,–,TK-10 Renal,–

Substance,Cell Line (NCI-60 cell line the peptide and its motif are associated with),Cell Line with which the peptide (and its tripeptide motif) is associated,Cell Line the peptide is associated with (peptide recovered from phage library selection on this NCI-60 cell line),Cell Line (NCI-60 cell line the peptide is associated with)
SGVSISC,IGROV1 Ovarian,–,–,–
RAGRDAP,UACC62 Melanoma,–,–,–
LLRRLSW,SK-MEL-2 Melanoma,–,–,–
QVAGRER,–,CCRF-CEM Leukemia,–,–
AASGSYY,–,–,–,HT-29 Colon
TRGSGAG,–,–,HS 578 T Breast,–
SPTGGRR,–,–,–,LOX-IMVI Melanoma
GRLRPFS,–,–,TK-10 Renal,–
RPWGAVA,SK-OV-3-3 Ovarian,–,–,–
SVLGGRL,–,EKVX-Lung,–,–
HGYRAGG,–,Hop-62-Lung,–,–
AKAGVSR,–,–,MCF-7 Breast,–
LTAAVMV,–,–,–,SNB-75 CNS
TSGAVAP,–,–,HS 578 T Breast,–
GAGTSEG,–,–,TK-10 Renal,–
RLSWTVL,PC3 Prostate,–,–,–
ARVSGRV,–,H23-Lung,–,–
WVGSGSP,–,Hop-92-Lung,–,–
NELRVCR,–,–,SN12C Renal,–
SGVSVEG,–,Hop-62-Lung,–,–
SGSRVSL,–,HL-60-Leukemia,–,–
PPPWGLR,–,K-562-Leukemia,–,–

# Source: patent publication US7781565B2 (priority 2006, dated 2010)
